Test results published in article PMC4306950 (Marine Drugs, 2015).

Assays:
[1] = biological target: T1, Kv1.4 (mouse LTK fibroblasts stably transfected with Kv1.4) (Homo sapiens, UniProt P22459); assay: Whole-cell patch-clamp electrophysiology on Kv1.4; type: cell-based; settings: for block of Kv1.4 at 100 nM: mouse LTK fibroblasts stably transfected with Kv1.4, peptide 100 nM
T1 construct: expressed in transfected cells

[2] = biological target: T2, mKv1.3 channels stably expressed in mouse L929 fibroblasts (Mus musculus, UniProt P16390); assay: Whole-cell patch-clamp electrophysiology on Kv1.3; type: cell-based; settings: mKv1.3 in L929 fibroblasts, 200 ms pulses to 40 mV every 30 s, holding -80 mV, Hill fit, n = 3 to 6 cells per concentration
T2 construct: expressed in transfected cells
T2 sequence (P16390 whole entry): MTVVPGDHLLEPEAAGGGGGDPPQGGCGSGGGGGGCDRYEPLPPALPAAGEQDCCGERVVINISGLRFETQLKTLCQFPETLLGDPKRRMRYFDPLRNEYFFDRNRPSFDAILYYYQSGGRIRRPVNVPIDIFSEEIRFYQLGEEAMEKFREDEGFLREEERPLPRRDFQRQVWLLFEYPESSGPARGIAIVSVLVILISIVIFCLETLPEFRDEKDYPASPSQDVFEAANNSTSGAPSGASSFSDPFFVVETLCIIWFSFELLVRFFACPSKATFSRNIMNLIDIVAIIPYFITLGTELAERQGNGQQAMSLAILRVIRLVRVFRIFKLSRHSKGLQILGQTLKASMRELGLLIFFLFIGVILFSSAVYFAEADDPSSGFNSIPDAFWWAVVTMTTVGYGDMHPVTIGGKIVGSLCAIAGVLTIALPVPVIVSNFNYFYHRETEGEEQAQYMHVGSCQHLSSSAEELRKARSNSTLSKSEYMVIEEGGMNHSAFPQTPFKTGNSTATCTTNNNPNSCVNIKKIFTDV
Procedure: Mouse fibroblasts stably expressing homotetramers of Kv1.1 or Kv1.3 were patch-clamped in the whole-cell configuration and steady-state block was measured after addition of different concentrations of the peptides.
(§1) Chips averaged 2–3.5 MΩ and a holding potential of −80 mV was used for all recordings. Series resistance compensation of 80% was used when currents exceeded 2 nA. The external solution was normal Ringer solution containing (in mM): 160 NaCl, 4.5 KCl, 2 CaCl2, 1 MgCl2, 10 Hepes, pH 7.4, 310 mOsm. The internal solution contained (in mM): 145 KF, 10 HEPES, 10 EGTA (ethylene glycol tetraacetic acid), 2 MgCl2, pH 7.2, 300 mOsm. Currents were elicited by repeated 200 ms pulses to 40 mV applied at intervals of 30 s for Kv1.3 and 10 s for Kv1.1. IC50 values were determined by fitting the Hill equation to the reduction of area under the current curve measured at 40 mV in the presence of different concentrations of the peptides (GraphPad Prism software, La Jolla, CA, USA).

[3] = biological target: T3, hKv1.6 (HEK cells transiently transfected with hKv1.6:eGFP) (Homo sapiens, UniProt P17658); assay: Whole-cell patch-clamp electrophysiology on Kv1.6; type: cell-based; settings: for block of Kv1.6 at 100 nM: HEK cells transiently transfected with hKv1.6:eGFP, patched 19 h after transfection, peptide 100 nM
T3 construct: expressed in transfected cells; host or cells: HEK cells, transient, Lipofectamine 2000 (plasmid a gift from Dr. Heike Wulff)
T3 sequence (P17658 whole entry): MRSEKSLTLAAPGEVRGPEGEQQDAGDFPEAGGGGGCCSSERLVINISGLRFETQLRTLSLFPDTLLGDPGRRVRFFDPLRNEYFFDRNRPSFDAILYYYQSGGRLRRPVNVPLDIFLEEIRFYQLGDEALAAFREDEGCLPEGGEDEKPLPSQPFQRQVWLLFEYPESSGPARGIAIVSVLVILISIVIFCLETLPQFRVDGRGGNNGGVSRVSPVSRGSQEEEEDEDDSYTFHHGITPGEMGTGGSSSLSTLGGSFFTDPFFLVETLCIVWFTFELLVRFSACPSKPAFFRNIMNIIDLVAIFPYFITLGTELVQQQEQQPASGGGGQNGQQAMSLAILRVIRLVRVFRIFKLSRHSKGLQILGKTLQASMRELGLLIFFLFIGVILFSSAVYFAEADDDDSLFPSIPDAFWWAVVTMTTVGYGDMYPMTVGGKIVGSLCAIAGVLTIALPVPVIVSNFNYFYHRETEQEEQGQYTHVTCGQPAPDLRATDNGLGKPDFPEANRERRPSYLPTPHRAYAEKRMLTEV
Procedure: The HEK cells were patched 19 h after transfection.
as §1

[4] = tested on: acute adoptive EAE, animal model of MS mediated by T lymphocytes; settings: cited from earlier work
Description: The Kv1.3 channel was discovered in the early 1980’s by the Chandy and Cahalan labs at the University of California Irvine and the Deutsch lab at the University of Pennsylvania. This K^+ channel, found in T lymphocytes, was the first to be described outside electrically excitable tissues. […] Kv1.3 in T lymphocytes is a voltage-gated homotetrameric membrane protein responsible for controlling the me ...

T1 sequence (P22459 whole entry): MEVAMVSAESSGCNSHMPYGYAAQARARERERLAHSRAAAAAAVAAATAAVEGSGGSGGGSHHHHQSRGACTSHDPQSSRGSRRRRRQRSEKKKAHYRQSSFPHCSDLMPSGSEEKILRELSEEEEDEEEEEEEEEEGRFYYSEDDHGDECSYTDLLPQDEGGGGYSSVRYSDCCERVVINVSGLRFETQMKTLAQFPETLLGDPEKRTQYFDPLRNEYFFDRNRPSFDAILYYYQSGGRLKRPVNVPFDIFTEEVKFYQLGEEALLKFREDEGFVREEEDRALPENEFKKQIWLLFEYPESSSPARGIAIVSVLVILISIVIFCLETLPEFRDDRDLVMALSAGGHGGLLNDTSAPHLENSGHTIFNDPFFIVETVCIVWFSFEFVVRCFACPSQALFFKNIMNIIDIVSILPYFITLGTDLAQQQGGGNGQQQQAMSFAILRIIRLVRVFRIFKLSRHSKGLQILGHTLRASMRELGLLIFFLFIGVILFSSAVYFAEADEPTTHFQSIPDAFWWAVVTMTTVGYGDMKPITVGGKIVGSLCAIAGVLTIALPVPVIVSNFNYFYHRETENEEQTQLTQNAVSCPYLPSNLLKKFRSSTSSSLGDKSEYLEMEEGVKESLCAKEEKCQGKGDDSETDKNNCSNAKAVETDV

| Compound | block of Kv1.4 at 100 nM [1] [% block at 100 nM] | IC50 [2] [nM] | block of Kv1.6 at 100 nM [3] [%] | IC50 [1] [nM] | IC50 [3] [nM] | effect on acute adoptive EAE [4] |
| --- | --- | --- | --- | --- | --- | --- |
| CC[C@H](C)[C@@H]1NC(=O)[C@H](CO)NC(=O)[C@H](Cc2c[nH]cn2)NC(=O)[C@H](CCCCN)NC(=O)[C@@H]2CSSC[C@@H]3NC(=O)[C@H]([C@@H](C)O)NC(=O)[C@H](CCCCN)NC(=O)[C@H](CCCNC(=N)N)NC(=O)[C@H](CSSC[C@H](NC(=O)[C@H](CCCNC(=N)N)NC(=O)[C@H](CO)NC(=O)[C@H](CCCCN)NC(=O)[C@@H]4CCCN4C(=O)[C@H]([C@@H](C)CC)NC(=O)[C@H]([C@@H](C)O)NC(=O)[C@H](CC(=O)O)NC(=O)[C@H]([C@@H](C)CC)NC(=O)[C@@H](NC(=O)[C@H](CO)NC(=O)[C@@H](N)CCCNC(=N)N)CSSC[C@@H](C(=O)N[C@@H](C)C(=O)O)NC(=O)[C@H]([C@@H](C)O)NC(=O)CNC3=O)C(=O)N[C@@H]([C@@H](C)O)C(=O)N[C@@H](C)C(=O)N[C@@H](Cc3ccccc3)C(=O)N[C@@H](CCCCN)C(=O)N2)NC(=O)[C@H](Cc2ccccc2)NC(=O)[C@H](CO)NC(=O)[C@H](CC(C)C)NC(=O)[C@H](CCCNC(=N)N)NC(=O)[C@H](Cc2ccc(O)cc2)NC(=O)[C@H](CCCCN)NC1=O [ShK-235] | <15 | 0.062 ± 0.0132 | ~25 |  |  |  |
| CC[C@H](C)[C@@H]1NC(=O)[C@@H](NC(=O)[C@H](CO)NC(=O)[C@@H](N)CCCNC(=N)N)CSSC[C@@H](C(=O)O)NC(=O)[C@H]([C@@H](C)O)NC(=O)CNC(=O)[C@@H]2CSSC[C@@H]3NC(=O)[C@H](CCC(N)=O)NC(=O)[C@H](Cc4ccccc4)NC(=O)[C@H](C)NC(=O)[C@H]([C@@H](C)O)NC(=O)[C@H](CSSC[C@H](NC(=O)[C@H](Cc4ccccc4)NC(=O)[C@H](CO)NC(=O)[C@H](CC(C)C)NC(=O)[C@H](CCCNC(=N)N)NC(=O)[C@H](Cc4ccc(O)cc4)NC(=O)[C@H](CCCCN)NC(=O)[C@H](CCSC)NC(=O)[C@H](CO)NC(=O)[C@H](Cc4cnc[nH]4)NC(=O)[C@H](CCCCN)NC3=O)C(=O)N[C@@H](CCCNC(=N)N)C(=O)N[C@@H](CCCCN)C(=O)N[C@@H]([C@@H](C)O)C(=O)N2)NC(=O)[C@H](CCCNC(=N)N)NC(=O)[C@H](CO)NC(=O)[C@H](CCCCN)NC(=O)[C@@H]2CCCN2C(=O)[C@H]([C@@H](C)CC)NC(=O)[C@H]([C@@H](C)O)NC(=O)[C@H](CC(=O)O)NC1=O [ShK, reference compound] |  | 0.0133 ± 0.0014 |  | 0.312 ± 0.014 | 165 ± 8 |  |
| kaliotoxin |  |  |  |  |  | ameliorate clinical signs |
| CC[C@H](C)[C@@H]1NC(=O)[C@@H](NC(=O)[C@H](CO)NC(=O)[C@@H](N)CCCNC(=N)N)CSSC[C@@H](C(=O)N[C@@H](C)C(=O)O)NC(=O)[C@H]([C@@H](C)O)NC(=O)CNC(=O)[C@@H]2CSSC[C@@H]3NC(=O)[C@H](CCCCN)NC(=O)[C@H](Cc4ccccc4)NC(=O)[C@H](C)NC(=O)[C@H]([C@@H](C)O)NC(=O)[C@H](CSSC[C@H](NC(=O)[C@H](Cc4ccccc4)NC(=O)[C@H](CO)NC(=O)[C@H](CC(C)C)NC(=O)[C@H](CCCNC(=N)N)NC(=O)[C@H](Cc4ccc(O)cc4)NC(=O)[C@H](CCCCN)NC(=O)[C@H](CCSC)NC(=O)[C@H](CO)NC(=O)[C@H](Cc4c[nH]cn4)NC(=O)[C@H](CCCCN)NC3=O)C(=O)N[C@@H](CCCNC(=N)N)C(=O)N[C@@H](CCCCN)C(=O)N[C@@H]([C@@H](C)O)C(=O)N2)NC(=O)[C@H](CCCNC(=N)N)NC(=O)[C@H](CO)NC(=O)[C@H](CCCCN)NC(=O)[C@@H]2CCCN2C(=O)[C@H]([C@@H](C)CC)NC(=O)[C@H]([C@@H](C)O)NC(=O)[C@H](CC(=O)O)NC1=O [ShK-234] | <15 | 0.037 ± 0.0046 | ~25 |  |  |  |
